US9963433B2, “Anticancer drugs including the chemical structures of an androgen receptor ligand and a histone deacetylase inhibitor” (Wayne State University, priority 2016, dated 2018)

Columns and labels:
human recombinant HDAC6 = target: T1, human recombinant HDAC6 (Homo sapiens, UniProt Q9UBN7); assay: HDAC6 fluorometric assay, recombinant enzyme; type: biochemical; details: for IC50: cell-free, FIG. 2C, read-out: IC50, inhibition of recombinant HDAC6
T1 construct: purchased Enzo Life Sciences BML-AK516
T1 sequence (Q9UBN7 1-1215): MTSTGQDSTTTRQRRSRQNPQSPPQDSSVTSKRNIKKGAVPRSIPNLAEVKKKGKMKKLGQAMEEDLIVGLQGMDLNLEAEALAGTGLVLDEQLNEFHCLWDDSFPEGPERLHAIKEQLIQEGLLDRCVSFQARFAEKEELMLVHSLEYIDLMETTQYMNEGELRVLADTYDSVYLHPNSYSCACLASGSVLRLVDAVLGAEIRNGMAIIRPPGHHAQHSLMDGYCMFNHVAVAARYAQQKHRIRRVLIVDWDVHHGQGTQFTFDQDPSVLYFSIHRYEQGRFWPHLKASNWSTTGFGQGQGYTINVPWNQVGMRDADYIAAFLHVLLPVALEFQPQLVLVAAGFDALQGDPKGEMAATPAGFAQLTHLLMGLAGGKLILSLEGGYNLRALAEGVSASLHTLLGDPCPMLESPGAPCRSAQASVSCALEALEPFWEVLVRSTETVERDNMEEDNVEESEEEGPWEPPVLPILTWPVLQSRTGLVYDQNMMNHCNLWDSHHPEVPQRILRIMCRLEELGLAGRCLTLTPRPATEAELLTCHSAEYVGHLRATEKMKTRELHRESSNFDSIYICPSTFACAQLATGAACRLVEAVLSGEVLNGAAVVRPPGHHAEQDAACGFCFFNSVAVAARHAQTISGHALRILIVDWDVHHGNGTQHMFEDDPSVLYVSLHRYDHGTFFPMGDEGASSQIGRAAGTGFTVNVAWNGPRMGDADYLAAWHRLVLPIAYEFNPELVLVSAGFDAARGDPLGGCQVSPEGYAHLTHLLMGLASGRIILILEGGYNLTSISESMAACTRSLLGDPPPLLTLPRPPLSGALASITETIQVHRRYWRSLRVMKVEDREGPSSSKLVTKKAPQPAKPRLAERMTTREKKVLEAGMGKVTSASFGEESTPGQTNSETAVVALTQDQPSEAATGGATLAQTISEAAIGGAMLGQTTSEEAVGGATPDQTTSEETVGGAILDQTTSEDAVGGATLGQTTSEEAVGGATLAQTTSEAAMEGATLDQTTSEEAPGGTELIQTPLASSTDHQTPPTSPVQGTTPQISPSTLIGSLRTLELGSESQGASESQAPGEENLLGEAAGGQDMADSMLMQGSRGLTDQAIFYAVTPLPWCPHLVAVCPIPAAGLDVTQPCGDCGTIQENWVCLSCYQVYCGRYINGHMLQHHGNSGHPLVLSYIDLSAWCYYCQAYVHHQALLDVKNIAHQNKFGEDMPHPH
Description: FIGS. 2A-2F show measurement of intrinsic and in situ HDACi activities. […] IC50 values were calculated from nonlinear regression plots using GraphPad Prism5 software. […] Recombinant HDAC6 was incubated with each drug at the indicated concentrations. IC50 values were calculated from nonlinear regression plots using GraphPad Prism5 software.
HDAC activity assay. In vitro HDAC inhibition was measured by using the HDAC fluorimetric assay/drug discovery Kit (Enzo Life Sciences, BML-AK500) and the HDAC6 fluorometric drug discovery kit (Enzo Life Sciences, BML-AK516) following the manufacturer's protocols and instructions. IC50 values were calculated from nonlinear […] plots using GraphPad Prism5 software.
HDAC1 and HDAC2 are enriched in nuclear extracts whereas HDAC6 is a cytosolic enzyme that is the principal modulator of the acetylation status of Hsp90. […] Again, TSA served as the positive control in FIG. 2D.

DLC1 mRNA in C4-2 cells = assay: In situ HDACi activity: DLC1 mRNA in C4-2 cells; type: cell-based; details: 48 h, normalized to GAPDH mRNA, FIG. 2F
Description: FIGS. 2A-2F show measurement of intrinsic and in situ HDACi activities. […]. IC50 values were calculated from nonlinear regression plots using GraphPad Prism5 software. (2B) Enz, 1002 and 3-52 were tested against HeLa cell nuclear extract at 10 μM and 25 μM and TSA (1 μM) was used as positive control. […] Recombinant HDAC6 was incubated with each drug at the indicated concentrations. IC50 values were calculated from nonlinear regression plots using GraphPad Prism5 software. (2D) Enz, 1002 and 3-52 were tested against recombinant HDAC6 at 10 μM and 25 μM and TSA (1 μM) was used as positive control. […]
Cell Culture and Reagents. LNCaP and 22Rv1 cell lines were from American Type Culture Collection (Manassas, Va.). C4-2 cells were kindly provided by Dr. Edwin Sanchez (University of Toledo). LNCaP and C4-2 cells were routinely grown at 37° C. in 5% CO2 in RPMI 1640 medium supplemented with 10% FBS (Invitrogen); 100 units/ml penicillin, 100 μg/ml streptomycin, 2 mM L-glutamine mixture (Invitrogen); and sodium pyruvate (1 mM) (Invitrogen). 22Rv1 cells were grown in RPMI 1640 medium supplemented with 10% FBS (Invitrogen); 100 units/ml penicillin, 100 μg/ml streptomycin, 2 mM L-glutamine mixture (Invitrogen). Affinity-purified rabbit anti-human antibody to AR (sc-816) and mouse anti-human antibody to GAPDH (sc-47724) were purchased from Santa Cruz Biotechnology (Santa Cruz, Calif.). Affinity-purified rabbit anti-human antibody to Hsp90 (C45G5) #4877 and rabbit anti-human antibody to acetylated lysine #9441 were purchased from Cell Signaling Technology. R1881 was kindly provided by Dr. Stephan Patrick (Karmanos Cancer Institute). All experiments were conducted using phenol-red free growth media. For hormone depletion, cells were grown in phenol-red free RPMI 1640 medium supplemented with 10% charcoal stripped FBS (Sigma-Aldrich) which was heat inactivated at 56° C. for thirty minutes, and a mixture of 100 units/ml penicillin, 100 μg/ml streptomycin and 2 mM L-glutamine for 96 h.
RNA isolation, Reverse Transcription, and Real Time PCR. Total RNA was isolated from cells using the RNeasy Mini Kit (Qiagen). Reverse transcription PCR was then performed using 500 ng of total RNA with random primers and using the high-capacity complementary DNA Archive kit (Applied Biosystems). The complementary DNA from this reaction was measured using quantitative real time PCR using the StepONE Plus Real Time PCR system (Life Technologies Corporation, Carlsbad, Calif.). All reactions were performed in triplicate and normalized to glyceraldehyde-3-phosphate-dehydrogenase values in the same samples. All primers and Taqman probes were purchased from the applied Biosystems inventory (Invitrogen) (Patki et al., 2015).
. […]

p21 mRNA in C4-2 cells = assay: p21 mRNA induction in C4-2 cells; details: 48 h, FIG. 5B

CNC(=O)c1ccc(N2C(=S)N(c3ccc(C#N)c(C(F)(F)F)c3)C(=O)C2(C)C)cc1F [Enz, Enzalutamide, reference compound]
inhibitory activity against HDAC6 (human recombinant HDAC6; tested at 10 μM and 25 μM, FIG. 2D): did not show significant inhibitory activity | DLC1 mRNA expression (DLC1 mRNA in C4-2 cells): had no effect | p21 mRNA expression (p21 mRNA in C4-2 cells): had no effect

CC1(C)C(=O)N(c2ccc(C#N)c(C(F)(F)F)c2)C(=S)N1c1ccc(/C=C/C(=O)NO)c(F)c1 [Compound 1005, (E)-3-(4-(3-(4-cyano-3-(trifluoromethyl)phenyl)-5,5-dimethyl-4-oxo-2-thioxoimidazolidin-1-yl)-2-fluorophenyl)-N-hydroxyacrylamide]
IC50 (human recombinant HDAC6): 6.93 µM | DLC1 mRNA expression (DLC1 mRNA in C4-2 cells): poor inducers of DLC1 mRNA compared with SAHA | p21 mRNA expression (p21 mRNA in C4-2 cells): induced p21 to a greater extent than SAHA

CC1(C)C(=O)N(c2ccc(C#N)c(C(F)(F)F)c2)C(=S)N1c1ccc(C(=O)NCCCCCCC(=O)NO)c(F)c1 [Compound 2-75, 4-(3-(4-cyano-3-(trifluoromethyl)phenyl)-5,5-dimethyl-4-oxo-2-thioxoimidazolidin-1-yl)-2-fluoro-N-(7-(hydroxyamino)-7-oxoheptyl)benzamide]
IC50 (human recombinant HDAC6): 2 µM | DLC1 mRNA expression (DLC1 mRNA in C4-2 cells): poor inducers of DLC1 mRNA compared with SAHA | p21 mRNA expression (p21 mRNA in C4-2 cells): induced p21 to a greater extent than SAHA
